Measured values: ChEMBL document CHEMBL1201862, “PubChem BioAssay data set” (2004)
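Step 1: Grow cells in 96-well plates. Step 2: Expose to compound for 48 hours at 5 concentrations. Step 3: Interpolate endpoints linearly; if unreached, use highest concentration. GI50: concentration for 50% inhibition of growth.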 Calls of active or inactive are those of the source. Rule as the data show it: active = GI50 up to about 1.1 µM and inactive = higher.

Columns and labels:
Assay in all cases: DTP human tumour cell line panel, 48 h
[1] = system: A549
[2] = system: CAKI-1
[3] = system: CCRF-CEM
[4] = system: COLO 205
[5] = system: HOP-62
[6] = system: HT-29
[7] = system: IGROV-1
[8] = system: MDA-MB-231
[9] = system: MDA-MB-435
[10] = system: NCI-H226
[11] = system: NCI-H23
[12] = system: OVCAR-8
[13] = system: PC-3
[14] = system: SK-MEL-28
[15] = system: SK-MEL-2
[16] = system: SK-MEL-5
[17] = system: SK-OV-3
[18] = system: SN12C
[19] = system: UACC-257
[20] = system: RXF 393

SMILES | GI50 [1] | GI50 [2] | GI50 [3] | GI50 [4] | GI50 [5] | GI50 [6] | GI50 [7] | GI50 [8] | GI50 [9] | GI50 [10] | GI50 [11] | GI50 [12] | GI50 [13] | GI50 [14] | GI50 [15] | GI50 [16] | GI50 [17] | GI50 [18] | GI50 [19] | GI50 [20]
O=C1NCc2ccccc2S(=O)(=O)n2cccc21 | > 100 µM (inactive) | > 100 µM (inactive) | > 100 µM (inactive) | > 100 µM (inactive) | > 100 µM (inactive) | > 100 µM (inactive) | > 100 µM (inactive) | > 100 µM (inactive) | > 100 µM (inactive) | > 100 µM (inactive) | > 100 µM (inactive) | > 100 µM (inactive) | > 100 µM (inactive) | > 100 µM (inactive) | 64.4 µM (inactive) | > 100 µM (inactive) | > 100 µM (inactive) | > 100 µM (inactive) | > 100 µM (inactive) | 
Brc1ccc(-c2ccc(-c3ccc(-c4ccc(Br)s4)s3)s2)s1 | > 100 µM (inactive) | > 100 µM (inactive) | > 100 µM (inactive) | > 100 µM (inactive) | > 100 µM (inactive) | > 100 µM (inactive) | > 100 µM (inactive) | > 100 µM (inactive) | > 100 µM (inactive) | 54.1 µM (inactive) | > 100 µM (inactive) | > 100 µM (inactive) | > 100 µM (inactive) | > 100 µM (inactive) |  | > 100 µM (inactive) | > 100 µM (inactive) | > 100 µM (inactive) | > 100 µM (inactive) | > 100 µM (inactive)
O=C1NC(=O)C(CCC(=O)c2cccc3ccccc23)C(=O)N1 | > 100 µM (inactive) | > 100 µM (inactive) | > 10 µM (inactive) | > 100 µM (inactive) |  | > 100 µM (inactive) |  | > 100 µM (inactive) | > 100 µM (inactive) | 77.8 µM (inactive) | > 100 µM (inactive) | > 100 µM (inactive) | > 100 µM (inactive) | > 100 µM (inactive) | > 100 µM (inactive) | > 100 µM (inactive) | > 100 µM (inactive) | > 100 µM (inactive) | > 100 µM (inactive) | > 100 µM (inactive)
CN(C)CCNC(=O)Cn1cc([N+](=O)[O-])c(=O)c2ccccc21 | > 100 µM (inactive) | > 100 µM (inactive) | > 100 µM (inactive) | > 100 µM (inactive) | > 100 µM (inactive) | > 100 µM (inactive) | > 100 µM (inactive) | > 100 µM (inactive) | > 100 µM (inactive) | > 100 µM (inactive) | > 100 µM (inactive) | > 100 µM (inactive) | > 100 µM (inactive) | > 100 µM (inactive) | > 100 µM (inactive) | > 100 µM (inactive) | > 100 µM (inactive) | > 100 µM (inactive) | > 100 µM (inactive) | 
O=C(CSCC(=O)N/N=C/c1cccs1)N/N=C/c1cccs1 | > 100 µM (inactive) | 46.6 µM (inactive) | 51.6 µM (inactive) |  | 46.3 µM (inactive) | > 100 µM (inactive) | 66.7 µM (inactive) | 75.9 µM (inactive) | > 100 µM (inactive) | 37.2 µM (inactive) | 38.8 µM (inactive) | 37 µM (inactive) | 30.6 µM (inactive) | > 100 µM (inactive) | 93.1 µM (inactive) | 76.4 µM (inactive) | > 100 µM (inactive) | > 100 µM (inactive) | > 100 µM (inactive) | 74.3 µM (inactive)
CCCC1CC(=O)NC(=O)C1C(=O)OC(C)(C)C (stereo not given) |  | > 100 µM (inactive) |  | > 100 µM (inactive) | > 100 µM (inactive) | > 100 µM (inactive) | > 100 µM (inactive) | > 100 µM (inactive) | > 100 µM (inactive) | > 100 µM (inactive) | > 100 µM (inactive) | > 100 µM (inactive) | > 100 µM (inactive) | > 100 µM (inactive) | > 100 µM (inactive) | > 100 µM (inactive) |  | > 100 µM (inactive) | > 100 µM (inactive) | > 100 µM (inactive)
COc1ccc(C2C(C#N)=C(S)N(C3OC(CO)C(O)C(O)C3O)C(C)=C2C(C)=O)cc1 (stereo not given) | > 100 µM (inactive) |  | > 100 µM (inactive) | > 100 µM (inactive) | > 100 µM (inactive) | > 100 µM (inactive) | > 100 µM (inactive) | > 100 µM (inactive) | > 100 µM (inactive) | > 100 µM (inactive) | > 100 µM (inactive) | > 100 µM (inactive) | 73.1 µM (inactive) | > 100 µM (inactive) | > 100 µM (inactive) | 42.2 µM (inactive) |  | > 100 µM (inactive) | > 100 µM (inactive) | 50 µM (inactive)
Cc1cc2ccccc2n1CC(=O)N1CCCC1 | > 100 µM (inactive) |  | > 100 µM (inactive) | > 100 µM (inactive) | > 100 µM (inactive) | > 100 µM (inactive) | > 100 µM (inactive) | > 100 µM (inactive) | > 100 µM (inactive) | > 100 µM (inactive) | > 100 µM (inactive) | > 100 µM (inactive) | > 100 µM (inactive) | > 100 µM (inactive) | > 100 µM (inactive) | > 100 µM (inactive) | > 100 µM (inactive) | > 100 µM (inactive) | > 100 µM (inactive) | > 100 µM (inactive)
COc1cc(/C=N/n2c(-c3ccccc3)n[nH]c2=O)cc(OC)c1OC | 4.95 µM (inactive) | 1.1 µM (active) | 1.76 µM (inactive) |  | 4.93 µM (inactive) | 4.39 µM (inactive) | 2.43 µM (inactive) | 19.2 µM (inactive) | 0.218 µM (active) | > 41.3 µM (inactive) | 4.41 µM (inactive) | 4.81 µM (inactive) | 2.81 µM (inactive) | > 28 µM (inactive) | 3.87 µM (inactive) | 0.815 µM (active) | 2.56 µM (inactive) | 7.67 µM (inactive) | > 100 µM (inactive) | 4.94 µM (inactive)
CCCCC1Cc2cc(O)ccc2-c2nc3cc(O)ccc3n21.CCCCC1Cc2cc(O)ccc2-c2nc3ccc(O)cc3n21 (stereo not given) | 16.3 µM (inactive) | 23.7 µM (inactive) | 19.2 µM (inactive) | 15.7 µM (inactive) | 14.4 µM (inactive) | 16.3 µM (inactive) | 13 µM (inactive) | 13.6 µM (inactive) | 11.9 µM (inactive) | 18.4 µM (inactive) | 21.9 µM (inactive) | 21.4 µM (inactive) | 12.6 µM (inactive) |  |  | 13.5 µM (inactive) | 18.5 µM (inactive) | 16.5 µM (inactive) | 15.8 µM (inactive) | 19.1 µM (inactive)
COC(=O)C12CCC(C(F)(F)C1=O)C2(C)C (stereo not given) | > 100 µM (inactive) | > 100 µM (inactive) |  | > 100 µM (inactive) | > 100 µM (inactive) | > 100 µM (inactive) | > 100 µM (inactive) | > 100 µM (inactive) | > 100 µM (inactive) | > 100 µM (inactive) | > 100 µM (inactive) | > 100 µM (inactive) | > 100 µM (inactive) | > 100 µM (inactive) | > 100 µM (inactive) | > 100 µM (inactive) | > 100 µM (inactive) | > 100 µM (inactive) | > 100 µM (inactive) | > 100 µM (inactive)
CCCCN1C(=O)C2Cc3c([nH]c4ccccc34)C(c3cccc(O)c3)N2C1=O (stereo not given) | 18.4 µM (inactive) | 18.7 µM (inactive) | 18.2 µM (inactive) | 19.6 µM (inactive) | 18.5 µM (inactive) | 20.9 µM (inactive) | 17.5 µM (inactive) | 15.5 µM (inactive) | 17.3 µM (inactive) | 21.5 µM (inactive) | 20.3 µM (inactive) | 18.9 µM (inactive) | 18.5 µM (inactive) | 19 µM (inactive) | 18 µM (inactive) | 17 µM (inactive) | 16.1 µM (inactive) | 17.9 µM (inactive) | 18.7 µM (inactive) | 
O=C1c2sc(-c3ccc(Cl)cc3)cc2-n2cccc21 | > 100 µM (inactive) | > 100 µM (inactive) | > 100 µM (inactive) | > 100 µM (inactive) | > 100 µM (inactive) | > 100 µM (inactive) | > 100 µM (inactive) | > 100 µM (inactive) | > 100 µM (inactive) | > 100 µM (inactive) |  | > 100 µM (inactive) | > 100 µM (inactive) | > 100 µM (inactive) | > 100 µM (inactive) | > 100 µM (inactive) | > 100 µM (inactive) | > 100 µM (inactive) | > 100 µM (inactive) | > 100 µM (inactive)
C#CCSC(C=C=C)P(=O)(OC(C)C)OC(C)C (stereo not given) | > 100 µM (inactive) | > 100 µM (inactive) |  | 58.5 µM (inactive) | > 100 µM (inactive) | 33 µM (inactive) | 45.7 µM (inactive) | > 100 µM (inactive) | > 100 µM (inactive) | > 100 µM (inactive) | > 100 µM (inactive) | > 100 µM (inactive) | > 100 µM (inactive) | > 100 µM (inactive) | > 100 µM (inactive) | > 100 µM (inactive) | > 100 µM (inactive) | 32.4 µM (inactive) | > 100 µM (inactive) | > 100 µM (inactive)
CCCCCCCCCC[C@@H](O)[C@H]1CC[C@@H]([C@H]2CC[C@H]([C@H](O)CCCCCCCCCC[C@@H]3CC(CC(C)=O)C(=O)O3)O2)O1 (stereo not given in full) | 2.16 µM (inactive) | 31 µM (inactive) | 12.9 µM (inactive) | 1.52 µM (inactive) | 7.55 µM (inactive) | 3.42 µM (inactive) | 8.28 µM (inactive) | 3.64 µM (inactive) | 32.4 µM (inactive) | 1 µM (active) | 0.00223 µM (active) | 2.34 µM (inactive) | 4.05 µM (inactive) | 3.46 µM (inactive) | 4.94 µM (inactive) | 0.01 µM (active) |  | 2.17 µM (inactive) | 2.14 µM (inactive) | 4.99 µM (inactive)
